Converted amounts (≈) assume the structure as drawn. Where two headings read alike, the source gives them in different places.
Legend:
Assay in all cases: microbe, parasite or virus in culture
[1] = test system: T1, Mycobacteroides abscessus subsp. abscessus MT16_1065; design: species or system M. abscessus; Resazurin microtiter assay (REMA), fluorescence; MIC at 90% growth inhibition from Gompertz fit; conditions: 48 h, smooth morphotype
T1 construct: MT16_1065
Experimental: (§1) MIC values were determined using the resazurin microtiter assay (REMA). Cultures were grown to log phase (OD600 of 0.4–0.8) and diluted to OD600 of 0.005. Drugs were prepared in two-fold serial dilutions in 96-well plates with 90 μL of bacteria per well to a final volume of 100 μL. Plates were incubated at 37°C until drug-free wells were turbid (2 days for M. abscessus). Ten μL of resazurin (0.025% wt/vol) was added to each well. Once the drug-free wells turned pink (one doubling time), the fluorescence (ex/em 560nm/590nm) was measured using an Infinite F200 Tecan plate reader. Fluorescence intensities were converted to % viable cells relative to drug-free conditions and fit to the Gompertz equation using GraphPad Prism version 9. MIC values at 90% growth inhibition were determined from the nonlinear regression Gompertz equation. Next, we tested the in vitro activity of EPT against a panel of M. abscessus clinical isolates belonging to the three subspecies of the M. abscessus complex (M. abscessus, M. massiliense, and M. bolletii) with smooth and rough colony morphologies and with different drug susceptibility profiles to various antibiotics. There was no loss in activity against clinical isolates (range of 0.014–0.046 μg/mL) nor different morphologies (S2 Table). To determine the spectrum of activity of EPT, we curated a panel of various mycobacteria and representative gram-positive and gram-negative bacteria. […] Mycobacteria strains were grown in rolling [compound left out] culture at 37°C in Middlebrook 7H9 (Difco) supplemented with 10% albumin dextrose catalase (ADC), 0.2% glycerol, and 0.05% Tween 80 (7H9 complete) or on 7H10 agar plates supplemented with 10% oleic acid ADC and 0.5% glycerol at 37°C. When mentioned, the carbon source was modified from glycerol to acetate or the detergent Tween 80 was removed from the media. Bacillus cereus (clinical isolate), Corynebacterium glutamicum (ATCC 13032), Escherichia coli, and Pseudomonas aeruginosa PAO1 were grown in LB broth. HepG2 cells (ATCC HB-8065) were grown in Dulbecco’s modified Eagle’s medium (DMEM) with phenol red (from Gibco) supplemented with 10% fetal bovine serum at 37°C with 5% CO2.

[2] = test system: T2, Mycobacteroides abscessus subsp. massiliense MT15_1749; design: species or system M. abscessus; Resazurin microtiter assay (REMA), fluorescence; MIC at 90% growth inhibition from Gompertz fit; conditions: 48 h, rough morphotype
T2 construct: MT15_1749
Experimental: as §1

[3] = test system: T3, Mycobacteroides abscessus subsp. abscessus ATCC 19977; design: species or system M. abscessus; Resazurin microtiter assay (REMA), fluorescence; MIC at 90% growth inhibition from Gompertz fit; conditions: ATCC19977, 48 h, rough morphotype
T3 construct: ATCC 19977
Experimental: as §1

[4] = test system: T4, Mycobacteroides abscessus subsp. bolletii Paris 167; design: species or system M. abscessus; Resazurin microtiter assay (REMA), fluorescence; MIC at 90% growth inhibition from Gompertz fit; conditions: 48 h, rough morphotype, read-out: MIC BDQ
T4 construct: Paris 167
Experimental: as §1

[5] = test system: T5, Mycobacteroides abscessus subsp. bolletii AV; design: species or system M. abscessus; Resazurin microtiter assay (REMA), fluorescence; MIC at 90% growth inhibition from Gompertz fit; conditions: 48 h, smooth morphotype
T5 construct: AV
Experimental: as §1

[6] = test system: T6, Mycobacteroides abscessus subsp. abscessus MT16_6490; design: species or system M. abscessus; Resazurin microtiter assay (REMA), fluorescence; MIC at 90% growth inhibition from Gompertz fit; conditions: 48 h, smooth morphotype
T6 construct: MT16_6490
Experimental: as §1

[7] = test system: T7, Mycobacteroides abscessus subsp. massiliense MT15_1748; design: species or system M. abscessus; Resazurin microtiter assay (REMA), fluorescence; MIC at 90% growth inhibition from Gompertz fit; conditions: 48 h, rough morphotype
T7 construct: MT15_1748
Experimental: as §1

M. tuberculosis Erdman = test system: T8, M. tuberculosis Erdman; design: Whole-cell growth inhibition, dose-response MIC (MIC90) by resazurin microtiter assay (REMA), fluorescence read-out; conditions: Mycobacterium tuberculosis, ERDMAN
T8 construct: Erdman

M. avium hominissuis = test system: M. avium hominissuis; design: Whole-cell growth inhibition, dose-response MIC (MIC90) by resazurin microtiter assay (REMA), fluorescence read-out; conditions: Mycobacterium avium
M. tuberculosis H37Rv = test system: T9, M. tuberculosis H37Rv; design: Whole-cell growth inhibition, dose-response MIC (MIC90) by resazurin microtiter assay (REMA), fluorescence read-out; conditions: Mycobacterium tuberculosis, H37RV
T9 construct: H37Rv

M. avium intracellulaire = test system: M. avium intracellulaire; design: Whole-cell growth inhibition, dose-response MIC (MIC90) by resazurin microtiter assay (REMA), fluorescence read-out; conditions: Mycobacterium avium
M. abscessus = test system: M. abscessus; design: Whole-cell growth inhibition, dose-response MIC (MIC90) by resazurin microtiter assay (REMA), fluorescence read-out; conditions: Mycobacteroides abscessus
B. cereus = test system: B. cereus; design: Whole-cell growth inhibition, dose-response MIC (MIC90) by resazurin microtiter assay (REMA), fluorescence read-out; conditions: Bacillus cereus
E. coli = test system: E. coli; design: Whole-cell growth inhibition, dose-response MIC (MIC90) by resazurin microtiter assay (REMA), fluorescence read-out; conditions: Escherichia coli
C. glutamicum = test system: C. glutamicum; design: Whole-cell growth inhibition, dose-response MIC (MIC90) by resazurin microtiter assay (REMA), fluorescence read-out; conditions: Corynebacterium glutamicum
P. aeruginosa = test system: P. aeruginosa; design: Whole-cell growth inhibition, dose-response MIC (MIC90) by resazurin microtiter assay (REMA), fluorescence read-out; conditions: Pseudomonas aeruginosa

COc1nc2ccc(Br)cc2cc1[C@@H](c1ccccc1)[C@@](O)(CCN(C)C)c1cccc2ccccc12 [Bedaquiline]
MIC ([1]; read-out: MIC BDQ): 0.36 µg/mL (≈ 0.648 µM) | MIC ([2]; read-out: MIC BDQ): 0.4 µg/mL (≈ 0.72 µM) | MIC ([3]; read-out: MIC BDQ): 0.27 µg/mL (≈ 0.486 µM) | MIC [4]: 0.39 µg/mL (≈ 0.702 µM) | MIC ([5]; read-out: MIC BDQ): 1.3 µg/mL (≈ 2.34 µM) | MIC ([6]; read-out: MIC BDQ): 0.83 µg/mL (≈ 1.49 µM) | MIC ([7]; read-out: MIC BDQ): 0.23 µg/mL (≈ 0.414 µM) | MIC (M. tuberculosis Erdman; read-out: MIC (µg/mL) / BDQ): 0.061 µg/mL (≈ 0.11 µM) | MIC (M. avium hominissuis; read-out: MIC (µg/mL) / BDQ): 0.038 µg/mL (≈ 0.0684 µM) | MIC (M. tuberculosis H37Rv; read-out: MIC (µg/mL) / BDQ): 0.26 µg/mL (≈ 0.468 µM) | MIC (M. avium intracellulaire; read-out: MIC (µg/mL) / BDQ): 0.014 µg/mL (≈ 0.0252 µM) | MIC (M. abscessus; read-out: MIC (µg/mL) / BDQ): 0.67 µg/mL (≈ 1.21 µM) | MIC (B. cereus; read-out: MIC (µg/mL) / BDQ): > 7.8 µg/mL | MIC (E. coli; table prints MIC, main text calls the EPT values MIC90, read-out: MIC (µg/mL) / BDQ): > 7.8 µg/mL | MIC (C. glutamicum; read-out: MIC (µg/mL) / BDQ): > 7.8 µg/mL | MIC (P. aeruginosa; read-out: MIC (µg/mL) / BDQ): > 7.8 µg/mL

NCC[C@H](O)C(=O)N[C@@H]1C[C@H](N)[C@@H](O[C@H]2O[C@H](CN)[C@@H](O)[C@H](O)[C@H]2O)[C@H](O)[C@H]1O[C@H]1O[C@H](CO)[C@@H](O)[C@H](N)[C@H]1O [Amikacin]
MIC ([1]; read-out: MIC AMK): 2.1 µg/mL (≈ 3.59 µM) | MIC ([2]; read-out: MIC AMK): 8.8 µg/mL (≈ 15 µM) | MIC ([3]; read-out: MIC AMK): 2.4 µg/mL (≈ 4.1 µM) | MIC ([5]; read-out: MIC AMK): 7 µg/mL (≈ 12 µM) | MIC ([6]; read-out: MIC AMK): 5.7 µg/mL (≈ 9.73 µM) | MIC ([7]; read-out: MIC AMK): 14 µg/mL (≈ 23.9 µM) | MIC (M. tuberculosis Erdman; read-out: MIC (µg/mL) / AMK): 0.48 µg/mL (≈ 0.82 µM) | MIC (M. avium hominissuis; read-out: MIC (µg/mL) / AMK): 5.6 µg/mL (≈ 9.56 µM) | MIC (M. tuberculosis H37Rv; read-out: MIC (µg/mL) / AMK): 0.3 µg/mL (≈ 0.512 µM) | MIC (M. avium intracellulaire; read-out: MIC (µg/mL) / AMK): 3.8 µg/mL (≈ 6.49 µM) | MIC (M. abscessus; read-out: MIC (µg/mL) / AMK): 4.8 µg/mL (≈ 8.2 µM) | MIC (B. cereus; read-out: MIC (µg/mL) / AMK): 64 µg/mL (≈ 109 µM) | MIC (E. coli; read-out: MIC (µg/mL) / AMK): 0.15 µg/mL (≈ 0.256 µM) | MIC (C. glutamicum; read-out: MIC (µg/mL) / AMK): 0.064 µg/mL (≈ 0.109 µM) | MIC (P. aeruginosa; read-out: MIC (µg/mL) / AMK): 0.22 µg/mL (≈ 0.376 µM)

— PMC8535176, “Efficacy of epetraborole against Mycobacterium abscessus is increased with norvaline” (PLoS Pathogens, 2021)
